Data from the supplement of paper PMC10307832.

compound: CCCS(=O)(=O)Nc1ccc(F)c(C(=O)c2c[nH]c3ncc(-c4ccc(Cl)cc4)cc23)c1F [Vemurafenib] + Nc1nc2[nH]cc(CCc3ccc(C(=O)N[C@@H](CCC(=O)O)C(=O)O)cc3)c2c(=O)[nH]1 [Pemetrexed] (partner 0.2 µM); test: relative viability (nuclei count vs DMSO), 5 days (fraction); higher = more cells survive; details: first compound 0.03162 µM
Procedure, shortened: (§1)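 Five library-drug doses in √10 steps were combined with a fixed anchor-drug dose, or a single drug was given alone, by pin tool to lung cancer cell lines in 1536-well plates the day after seeding. Nuclei were stained and counted after 5 days. Relative viability is the nuclei count in treated wells over that in vehicle wells, taken as the median of duplicate plates.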

| Cell Line | relative viability |
| --- | --- |
| 201T | 0.375 |
| SK-MES-1 | 0.891 |
| NCI-H441 | 0.23 |
| HCC-78 | 0.925 |

same assay, conditions: first compound 0.1 µM

| Cell Line | relative viability |
| --- | --- |
| 201T | 0.378 |
| NCI-H441 | 0.295 |
| HCC-78 | 0.922 |

same assay, conditions: first compound 0.3162 µM

| Cell Line | relative viability |
| --- | --- |
| 201T | 0.322 |
| SK-MES-1 | 0.858 |
| NCI-H441 | 0.249 |
| HCC-78 | 0.932 |

same assay, conditions: first compound 1 µM

| Cell Line | relative viability |
| --- | --- |
| 201T | 0.283 |
| SK-MES-1 | 0.92 |
| NCI-H441 | 0.27 |
| HCC-78 | 0.921 |

compound: Cc1nc(NC(=O)N2CCC[C@H]2C(N)=O)sc1-c1ccnc(C(C)(C)C(F)(F)F)c1 [Alpelisib] + O=C(CCCCCCC(=O)Nc1ccccc1)NO [Vorinostat] (partner 1 µM); test: as above; details: first compound 0.04 µM
Procedure, shortened: as §1

| Cell Line | relative viability |
| --- | --- |
| 201T | 0.928 |
| SK-MES-1 | 1.13 |
| NCI-H441 | 0.681 |
| HCC-78 | 0.363 |

same assay, conditions: first compound 0.1265 µM

| Cell Line | relative viability |
| --- | --- |
| 201T | 0.928 |
| SK-MES-1 | 1.09 |
| NCI-H441 | 0.716 |
| HCC-78 | 0.392 |

same assay, conditions: first compound 0.4 µM

| Cell Line | relative viability |
| --- | --- |
| 201T | 0.949 |
| SK-MES-1 | 1.15 |
| NCI-H441 | 0.961 |
| HCC-78 | 0.478 |

same assay, conditions: first compound 1.265 µM

| Cell Line | relative viability |
| --- | --- |
| 201T | 0.842 |
| SK-MES-1 | 0.828 |
| NCI-H441 | 0.603 |
| HCC-78 | 0.326 |

same assay, conditions: first compound 4 µM

| Cell Line | relative viability |
| --- | --- |
| 201T | 0.831 |
| SK-MES-1 | 0.833 |
| NCI-H441 | 0.401 |
| HCC-78 | 0.342 |

compound: COc1cccc2cc(-c3nc([C@H]4CC[C@H](C(=O)O)CC4)n4ncnc(N)c34)[nH]c12 [OSI-027] + C[C@]1(O)C[C@@H](c2nc(-c3ccc4ccc(-c5ccccc5)nc4c3)c3c(N)nccn32)C1 [Linsitinib] (partner 1 µM); test: as above; details: first compound 0.01 µM
Procedure, shortened: as §1

| Cell Line | relative viability |
| --- | --- |
| 201T | 0.932 |
| SK-MES-1 | 1.01 |
| NCI-H441 | 0.643 |
| HCC-78 | 0.469 |

same assay, conditions: first compound 0.03162 µM

| Cell Line | relative viability |
| --- | --- |
| 201T | 0.974 |
| SK-MES-1 | 0.956 |
| NCI-H441 | 0.452 |
| HCC-78 | 0.386 |

same assay, conditions: first compound 0.1 µM

| Cell Line | relative viability |
| --- | --- |
| 201T | 1.01 |
| SK-MES-1 | 0.911 |
| NCI-H441 | 0.399 |
| HCC-78 | 0.296 |

same assay, conditions: first compound 0.3162 µM

| Cell Line | relative viability |
| --- | --- |
| 201T | 0.833 |
| SK-MES-1 | 0.737 |
| NCI-H441 | 0.387 |
| HCC-78 | 0.255 |

same assay, conditions: first compound 1 µM

| Cell Line | relative viability |
| --- | --- |
| 201T | 0.936 |
| SK-MES-1 | 0.538 |
| NCI-H441 | 0.206 |
| HCC-78 | 0.232 |

compound: COc1cccc2cc(-c3nc([C@H]4CC[C@H](C(=O)O)CC4)n4ncnc(N)c34)[nH]c12 [OSI-027] + Cc1nc(NC(=O)N2CCC[C@H]2C(N)=O)sc1-c1ccnc(C(C)(C)C(F)(F)F)c1 [Alpelisib] (partner 2 µM); test: as above; details: first compound 0.01 µM
Procedure, shortened: as §1

| Cell Line | relative viability |
| --- | --- |
| 201T | 0.998 |
| SK-MES-1 | 0.898 |
| NCI-H441 | 0.716 |
| HCC-78 | 0.337 |

same assay, conditions: first compound 0.03162 µM

| Cell Line | relative viability |
| --- | --- |
| 201T | 1 |
| SK-MES-1 | 0.841 |
| NCI-H441 | 0.718 |
| HCC-78 | 0.3 |

same assay, conditions: first compound 0.1 µM

| Cell Line | relative viability |
| --- | --- |
| 201T | 0.963 |
| SK-MES-1 | 0.811 |
| NCI-H441 | 0.686 |
| HCC-78 | 0.248 |

same assay, conditions: first compound 0.3162 µM

| Cell Line | relative viability |
| --- | --- |
| 201T | 0.919 |
| SK-MES-1 | 0.534 |
| NCI-H441 | 0.636 |
| HCC-78 | 0.14 |

same assay, conditions: first compound 1 µM

| Cell Line | relative viability |
| --- | --- |
| 201T | 0.545 |
| SK-MES-1 | 0.337 |
| NCI-H441 | 0.273 |
| HCC-78 | 0.163 |
